# From patent US9949965B2, “Tricyclic indole Mcl-1 inhibitors and uses thereof” (priority 2014, dated 2018)
# Read-outs that look alike come from different tables or passages of the source.
# Experiments:
# [1] = target: T1, recombinant Mcl-1 (residues 172-327) (Homo sapiens, UniProt Q07820); assay: Bak peptide binding assay: fluorescence polarization anisotropy competition (FITC-Bak BH3 peptide); conditions: 10 nM FITC-Bak, 14 nM Mcl-1, Ki converted from IC50
# T1 construct: 14 nM recombinant Mcl-1 (residues 172-327) were added to assay buffer
# T1 sequence (Q07820 172-327): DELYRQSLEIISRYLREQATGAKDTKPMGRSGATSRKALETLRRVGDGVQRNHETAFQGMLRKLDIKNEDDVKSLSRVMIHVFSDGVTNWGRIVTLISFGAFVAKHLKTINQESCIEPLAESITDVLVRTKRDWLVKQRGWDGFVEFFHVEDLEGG
# Description: (§1) Bak Peptide Binding Assay
# (§2) Compound affinity was measured using a fluorescence polarization anisotropy competition assay. Anisotropy measurements were carried out in 384-well, black, flat-bottom plates (Greiner Bio-one, Monroe, N.C., USA). The assay was run using a fluorescein isothiocyanate-labeled BH3 peptide derived from Bak (FITC-AHx-[…] […] H2) (SEQ ID NO: 1) that was purchased from GenScript (Piscataway, N.J.) at >95% purity and used without further purification. 10 nM FITC-Bak peptide and 14 nM recombinant Mcl-1 (residues 172-327) were added to assay buffer (3 mM dithiothreitol, 50 mM NaCl, 20 mM Tris, pH 7.5). For selectivity assays, 40 nM Bcl-2 (residues 1-207^A96T,G110R, Δ35-91, replaced with Bcl-xL35-50) or 4 nM Bcl-xL (residues 1-209, loop 45-86 deleted) were incubated with 10 nM FITC-Bak in assay buffer.
# (§3) Compounds are diluted in DMSO in a 10-point, 3-fold serial dilution scheme. 2.5 uL compound is added to 47.5 uL of assay buffer containing FITC-Bak and protein, for a final DMSO concentration of 5% and a top concentration of 20 uM. […] The plate was mixed and incubated for 90 minutes at room temperature. Anisotropy is measured at excitation wavelength 480 nm and emission wavelength 535 nm using an EnVision Multi-label plate reader (PerkinElmer, Wellesley, Mass., USA). Fluorescence anisotropy is plotted against compound concentration to generate an IC50 (inhibitor concentration at which 50% of bound peptide is displaced) by fitting the data to a 4-parameter logistic model using XLFit software (Guildford, Surrey, UK). IC50 is converted to a binding dissociation constant (Ki value) according to the formula of Wang Z. FEBS Lett (1996) 3, 245: Ki=[I]50/([L]50/Kd+[P]0/Kd+1) where [I]50 is the concentration of the free inhibitor at 50% inhibition, [L]50 is the concentration of the free labeled ligand at 50% inhibition, [P]0 is the concentration of the free protein at 0% inhibition, Kd represents the dissociation constant of the FITC peptide probe.
# [2] = target: T2, Bcl-xL (residues 1-209, loop 45-86 deleted) (Homo sapiens, UniProt Q07817, DEL45-86); assay: biochemical; type: binding; conditions: Table 3; 10 nM FITC-Bak, 4 nM Bcl-xL; top concentration 20 uM
# T2 construct: Bcl-xL (residues 1-209, loop 45-86 deleted)
# T2 sequence (Q07817 other isoform, or with tags, fused parts or gaps DEL45-86): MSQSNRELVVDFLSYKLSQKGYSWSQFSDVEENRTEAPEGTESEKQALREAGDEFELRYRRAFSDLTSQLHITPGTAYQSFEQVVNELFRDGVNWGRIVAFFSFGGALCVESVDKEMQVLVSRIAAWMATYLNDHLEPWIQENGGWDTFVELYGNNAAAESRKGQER
# Description: as §1, §2, §3
# [3] = Ki For Inhibition of Mcl-I Protein, Table 2, binned range
Structure (SMILES),"Ki [1, 3]",other results
"O=C(O)c1c(CCCOc2cccc3ccccc23)c2cccc3c2n1CCS3(=O)=O [Example 22, 6-(3-(naphthalen-1-yloxy)propyl)-2,3-dihydro-[1,4]thiazino[2,3,4-hi]indole-5-carboxylic acid 1,1-dioxide]",≤ 100 nM,
"Cc1cc(OCCCc2c(C(=O)NS(=O)(=O)c3ccccc3)n3c4c(cccc24)SCCC3)cc(C)c1Cl [Example 24, 7-(3-(4-chloro-3,5-dimethylphenoxy)propyl)-N-(phenylsulfonyl)-3,4-dihydro-2H-[1,4]thiazepino[2,3,4-hi]indole-6-carboxamide]",101 to 299 nM,
"O=C(O)c1c(CCCOc2cccc3ccccc23)c2cccc3c2n1CCCS3(=O)=O [Example 21, 7-(3-(naphthalen-1-yloxy)propyl)-3,4-dihydro-2H-[1,4]thiazepino[2,3,4-hi]indole-6-carboxylic acid 1,1-dioxide]",≤ 100 nM,
"Cc1cc(OCCc2c(C(=O)O)n3c4c(cccc24)SCC3)cc(C)c1Cl [Example 3, 6-(2-(4-chloro-3,5-dimethylphenoxy)ethyl)-2,3-dihydro-[1,4]thiazino[2,3,4-hi]indole-5-carboxylic acid]",1000 to 9990 nM,
"Cc1cc(OCCCc2c(C(=O)O)n3c4c(c(Cl)ccc24)OCC3)cc(C)c1Cl [Example 27, 9-chloro-6-(3-(4-chloro-3,5-dimethylphenoxy)propyl)-2,3-dihydro-[1,4]oxazino[2,3,4-hi]indole-5-carboxylic acid]",≤ 100 nM,"Ki ([1]; Table 3, read-out: Ki Mcl-1): 9 nM; Ki [2]: > 20000 nM"
"O=C(O)c1c(CCCOc2cccc3ccccc23)c2cccc3c2n1CCC3 [Example 14, 1-(3-(naphthalen-1-yloxy)propyl)-5,6-dihydro-4H-pyrrolo[3,2,1-ij]quinoline-2-carboxylic acid]",301 to 500 nM,
"O=C(O)c1c(CCCOc2cccc3ccccc23)c2cccc3c2n1CCCS3 [Example 18, 7-(3-(naphthalen-1-yloxy)propyl)-3,4-dihydro-2H-[1,4]thiazepino[2,3,4-hi]indole-6-carboxylic acid]",101 to 299 nM,
"O=C(O)c1c(CCCOc2ccc(Cl)c3ccccc23)c2cccc3c2n1CCS3 [Example 10, 6-(3-((4-chloronaphthalen-1-yl)oxy)propyl)-2,3-dihydro-[1,4]thiazino[2,3,4-hi]indole-5-carboxylic acid]",101 to 299 nM,"Ki ([1]; Table 3, read-out: Ki Mcl-1): 201 nM; Ki [2]: 4700 nM"
"O=C(O)c1c(CCOc2cccc3ccccc23)c2cccc3c2n1CCS3 [Example 1, 6-(2-(naphthalen-1-yloxy)ethyl)-2,3-dihydro-[1,4]thiazino[2,3,4-hi]indole-5-carboxylic acid]",1000 to 9990 nM,
"Cc1cc(OCCCc2c(C(=O)O)n3c4c(cccc24)SCC3)cc(C)c1Cl [Example 13, 6-(3-(4-chloro-3,5-dimethylphenoxy)propyl)-2,3-dihydro-[1,4]thiazino[2,3,4-hi]indole-5-carboxylic acid]",≤ 100 nM,"Ki ([1]; Table 3, read-out: Ki Mcl-1): 71 nM; Ki [2]: > 20000 nM"
"Cc1cc(OCCCc2c(C(=O)O)n3c4c(cccc24)SCC3)ccc1Cl [Example 12, 6-(3-(4-chloro-3-methylphenoxy)propyl)-2,3-dihydro-[1,4]thiazino[2,3,4-hi]indole-5-carboxylic acid]",101 to 299 nM,
"O=C(O)c1c(CCOc2cccc3ccccc23)c2cccc3c2n1CCC3 [Example 4, 1-(2-(naphthalen-1-yloxy)ethyl)-5,6-dihydro-4H-pyrrolo[3,2,1-ij]quinoline-2-carboxylic acid]",1000 to 9990 nM,
"CS(=O)(=O)NC(=O)c1c(CCOc2cccc3ccccc23)c2cccc3c2n1CCS3 [Example 2, N-(methylsulfonyl)-6-(2-(naphthalen-1-yloxy)ethyl)-2,3-dihydro-[1,4]thiazino[2,3,4-hi]indole-5-carboxamide]",1000 to 9990 nM,
"O=C(O)c1c(CCOc2cccc3ccccc23)c2cccc3c2n1CCO3 [Example 5, 6-(2-(naphthalen-1-yloxy)ethyl)-2,3-dihydro-[1,4]oxazino[2,3,4-hi]indole-5-carboxylic acid]",1000 to 9990 nM,
"O=C(O)c1c(CCCOc2cccc3ccccc23)c2cccc3c2n1CCO3 [Example 25, 6-(3-(naphthalen-1-yloxy)propyl)-2,3-dihydro-[1,4]oxazino[2,3,4-hi]indole-5-carboxylic acid]",101 to 299 nM,
"Cc1cc(OCCCc2c(C(=O)O)n3c4c(cccc24)OCC3)cc(C)c1Cl [Example 26, 6-(3-(4-chloro-3,5-dimethylphenoxy)propyl)-2,3-dihydro-[1,4]oxazino[2,3,4-hi]indole-5-carboxylic acid]",≤ 100 nM,
"O=C(O)c1c(CCCOc2cccc3c2CCCC3)c2cccc3c2n1CCS3 [Example 9, 6-(3-((5,6,7,8-tetrahydronaphthalen-1-yl)oxy)propyl)-2,3-dihydro-[1,4]thiazino[2,3,4-hi]indole-5-carboxylic acid]",101 to 299 nM,
"O=C(NS(=O)(=O)c1ccccc1)c1c(CCOc2cccc3ccccc23)c2cccc3c2n1CCO3 [Example 6, 6-(2-(naphthalen-1-yloxy)ethyl)-N-(phenylsulfonyl)-2,3-dihydro-[1,4]oxazino[2,3,4-hi]indole-5-carboxamide]",501 to 999 nM,
"O=C(O)c1c(CCCOc2ccc3c(c2)CCCC3)c2cccc3c2n1CCS3 [Example 11, 6-(3-((5,6,7,8-tetrahydronaphthalen-2-yl)oxy)propyl)-2,3-dihydro-[1,4]thiazino[2,3,4-hi]indole-5-carboxylic acid]",301 to 500 nM,
"CS(=O)(=O)NC(=O)c1c(CCCOc2cccc3ccccc23)c2cccc3c2n1CCC3 [Example 15, N-(methylsulfonyl)-1-(3-(naphthalen-1-yloxy)propyl)-5,6-dihydro-4H-pyrrolo[3,2,1-ij]quinoline-2-carboxamide]",1000 to 9990 nM,
"O=C(O)c1c(CCCOc2cccc3ccccc23)c2cccc3c2n1CCC[S+]3[O-] (stereo not drawn) [Example 20, 7-(3-(naphthalen-1-yloxy)propyl)-3,4-dihydro-2H-[1,4]thiazepino[2,3,4-hi]indole-6-carboxylic acid 1-oxide]",≤ 100 nM,Ki [2]: > 20000 nM
"CS(=O)(=O)NC(=O)c1c(CCCOc2cccc3ccccc23)c2cccc3c2n1CCCS3 [Example 19, N-(methylsulfonyl)-7-(3-(naphthalen-1-yloxy)propyl)-3,4-dihydro-2H-[1,4]thiazepino[2,3,4-hi]indole-6-carboxamide]",501 to 999 nM,
"Cc1cc(OCCCc2c(C(=O)O)n3c4c(c(Cl)ccc24)CCC3)cc(C)c1Cl [Example 28, 7-chloro-1-(3-(4-chloro-3,5-dimethylphenoxy)propyl)-5,6-dihydro-4H-pyrrolo[3,2,1-ij]quinoline-2-carboxylic acid]",≤ 100 nM,
"Cc1cc(OCCCc2c(C(=O)NS(=O)(=O)c3ccccc3)n3c4c(cccc24)CCC3)cc(C)c1Cl [Example 17, 1-(3-(4-chloro-3,5-dimethylphenoxy)propyl)-N-(phenylsulfonyl)-5,6-dihydro-4H-pyrrolo[3,2,1-ij]quinoline-2-carboxamide]",301 to 500 nM,
"Cc1cc(OCCCc2c(C(=O)O)n3c4c(cccc24)SCCC3)cc(C)c1Cl [Example 23, 7-(3-(4-chloro-3,5-dimethylphenoxy)propyl)-3,4-dihydro-2H-[1,4]thiazepino[2,3,4-hi]indole-6-carboxylic acid]",≤ 100 nM,"Ki ([1]; Table 3, read-out: Ki Mcl-1): 40 nM; Ki [2]: > 20000 nM"
"O=C(O)c1c(CCCOc2cccc3ccccc23)c2cccc3c2n1CCS3 [Example 7, 6-(3-(naphthalen-1-yloxy)propyl)-2,3-dihydro-[1,4]thiazino[2,3,4-hi]indole-5-carboxylic acid]",101 to 299 nM,"Ki ([1]; Ki Mcl-1, Table 3): 107 nM; Ki [2]: > 20000 nM"
"Cc1cc(OCCCc2c(C(=O)O)n3c4c(cccc24)CCC3)cc(C)c1Cl [Example 16, 1-(3-(4-chloro-3,5-dimethylphenoxy)propyl)-5,6-dihydro-4H-pyrrolo[3,2,1-ij]quinoline-2-carboxylic acid]",101 to 299 nM,
"CS(=O)(=O)NC(=O)c1c(CCCOc2cccc3ccccc23)c2cccc3c2n1CCS3 [Example 8, N-(methylsulfonyl)-6-(3-(naphthalen-1-yloxy)propyl)-2,3-dihydro-[1,4]thiazino[2,3,4-hi]indole-5-carboxamide]",1000 to 9990 nM,
